{
  "source": "ChEMBL document CHEMBL1151935",
  "about": "“Improvement of pharmacological properties of irreversible thyroid receptor coactivator binding inhibitors” (J Med Chem, 2009)",
  "data": [
    {"assay": "in vitro", "settings": "PAMPA, pH 7.4", "units": {"Papp": "×10⁻⁶ cm/s"}, "values": [
      {"smiles": "CCCCCCS(=O)(=O)c1ccc(C(=O)CCN2CC2C)c(Cl)c1", "note": "(configuration not stated)", "Papp": 160},
      {"smiles": "CCCCCCS(=O)(=O)c1ccc(C(=O)CCN(C)C)c(Cl)c1", "Papp": 380},
      {"smiles": "CCCCCCS(=O)(=O)c1ccc(C(=O)CCN2CCOCC2)c(Cl)c1Cl", "Papp": 560},
      {"smiles": "CCCCCCSc1cc(Cl)c(C(=O)CCN(C)C)cc1Cl", "Papp": 330},
      {"smiles": "CCCCCCOc1ccc(C(=O)CCN2CC2C)c(Cl)c1", "note": "(configuration not stated)", "Papp": 870},
      {"smiles": "CCCCCCSc1cc(Cl)c(C(=O)CCN2CC2C)c(Cl)c1", "note": "(configuration not stated)", "Papp": 190},
      {"smiles": "CCCCCCOc1ccc(C(=O)CCN(C)C)cc1I", "Papp": 540},
      {"smiles": "CCCCCCOc1ccc(C(=O)CCN(C)C)cc1Cc1ccccc1", "Papp": 230},
      {"smiles": "CCCCCCOc1ccc(C(=O)CCN(CCCC)CCCC)cc1", "Papp": 560},
      {"smiles": "CCCCCCOc1ccc(C(=O)CCN(C)C)cc1OC", "Papp": 950},
      {"smiles": "CCCCCCSc1ccc(C(=O)CCN(C)C)c(Cl)c1", "Papp": 610},
      {"smiles": "CCCCCCOc1ccc2c(c1)CC(CN(C)C)C2=O", "note": "(configuration not stated)", "Papp": 230},
      {"smiles": "CCCCCCSc1ccc(C(=O)CCN2CCN(S(=O)(=O)CC)CC2)c(Cl)c1Cl", "Papp": 30},
      {"smiles": "CCCCCCOc1ccc(C(=O)CCN(C)C)c(Br)c1", "Papp": 80},
      {"smiles": "CCCCCCS(=O)(=O)c1cc(Cl)c(C(=O)CCN(C)C)cc1Cl", "Papp": 90},
      {"smiles": "CCCCCCSc1cc(C)c(C(=O)CCN2CCN(S(=O)(=O)CC)CC2)c(C)c1", "Papp": 160},
      {"smiles": "CCCCCCOc1ccc(C(=O)CCN(C)C)c(N(C)C)c1", "Papp": 170},
      {"smiles": "CCCCCCS(=O)(=O)c1ccc(C(=O)CCN2CCOCC2)c(Cl)c1", "Papp": 760},
      {"smiles": "CCCCCCS(=O)(=O)c1cc(Cl)c(C(=O)CCN2CCOCC2)c(Cl)c1", "Papp": 470},
      {"smiles": "CCCCCCOc1ccc2c(c1)CCC(CN(C)C)C2=O", "note": "(configuration not stated)", "Papp": 710},
      {"smiles": "CCCCCCOc1cc(Cl)c(C(=O)CCN2CC2C)c(Cl)c1", "note": "(configuration not stated)", "Papp": "> 1"},
      {"smiles": "CCCCCCOc1cc(Cl)c(C(=O)CCN2CCOCC2)c(Cl)c1", "Papp": "> 1"},
      {"smiles": "CCCCCCOc1ccc(C(=O)CCN(C)C)c(I)c1", "Papp": 270},
      {"smiles": "CCCCCCS(=O)(=O)c1cc(C)c(C(=O)CCN2CCN(C(C)=O)CC2)c(C)c1", "Papp": 470},
      {"smiles": "CCCCCCOc1cc(Cl)c(C(=O)CCN2CCN(S(=O)(=O)CC)CC2)c(Cl)c1", "Papp": 860},
      {"smiles": "CCCCCS(=O)(=O)Nc1ccc(C(=O)CCN(C)C)cc1", "Papp": 50},
      {"smiles": "CCCCCCSc1ccc(C(=O)CCN2CC2C)c(Cl)c1", "note": "(configuration not stated)", "Papp": 500},
      {"smiles": "CCCCCCS(=O)(=O)c1cc(Cl)c(C(=O)CCN2CC2C)cc1Cl", "note": "(configuration not stated)", "Papp": 260},
      {"smiles": "CCCCCCOc1ccc(C(=O)CCN(C)C)cc1F", "Papp": 700},
      {"smiles": "CCCCCCSc1cc(Cl)c(C(=O)CCN2CCNC(=O)C2)cc1Cl", "Papp": 810},
      {"smiles": "CCCCCCOc1ccc(-c2ccc(C(=O)CCN(C)C)cc2)cc1", "Papp": 150},
      {"smiles": "CCCCCCOc1cc(C)c(C(=O)CCN2CC2C)c(C)c1", "note": "(configuration not stated)", "Papp": 930},
      {"smiles": "CCOCCOc1ccc(C(=O)CCN(C)C)cc1", "Papp": 160},
      {"smiles": "CCCCCCOc1ccc(C(=O)CCN(C)C)cc1S(C)(=O)=O", "Papp": 730},
      {"smiles": "CCCCNC(=O)Nc1ccc(C(=O)CCN(C)C)cc1", "Papp": 10},
      {"smiles": "CCCCCCS(=O)(=O)c1ccc(C(=O)CCN2CCN(C(C)=O)CC2)c(Cl)c1", "Papp": 360},
      {"smiles": "CCCCCCSc1cc(Cl)c(C(=O)CCN(C)C)c(Cl)c1", "Papp": 350},
      {"smiles": "CCCCCCOc1ccc(C(=O)CCNc2ccccc2)cc1", "Papp": 0.2},
      {"smiles": "CCCCCCS(=O)(=O)c1ccc(C(=O)CCN(C)C)c(Cl)c1Cl", "Papp": 220},
      {"smiles": "CCCCCCOc1cc(Cl)c(C(=O)CCN2CC2C)cc1Cl", "note": "(configuration not stated)", "Papp": 810},
      {"smiles": "CCCCCCOc1ccc(C(=O)C(CN(C)C)c2ccccc2)cc1", "note": "(configuration not stated)", "Papp": 910},
      {"smiles": "CCCCCCOc1ccc(C(=O)CCN2CCN(S(=O)(=O)CC)CC2)c(Cl)c1Cl", "Papp": "> 1"},
      {"smiles": "CCCCCCOc1cc(C(C)C)c(C(=O)CCN(C)C)cc1C", "Papp": 860},
      {"smiles": "CCCCCCS(=O)(=O)c1ccc(C(=O)CCN(C)C)cc1", "Papp": 780},
      {"smiles": "CCN1CCC(Cc2ccc(C(=O)CCN(C)C)cc2)CC1", "Papp": 140},
      {"smiles": "CCCCCCOc1cc(C)c(C(=O)CCN(C)C)c(C)c1", "Papp": 650},
      {"smiles": "CCCCCCOc1ccc(C(=O)CCN(C)C)cc1-c1ccccc1", "Papp": 830},
      {"smiles": "CCCCCCSc1cc(Cl)c(C(=O)CCN2CCN(S(=O)(=O)CC)CC2)cc1Cl", "Papp": 20},
      {"smiles": "CCCCCCOc1cccc(C(=O)CCN(C)C)c1", "Papp": 830},
      {"smiles": "CCCCCCOc1ccc(C(=O)CCN2CC2C)c(Cl)c1Cl", "note": "(configuration not stated)", "Papp": 370},
      {"smiles": "CCCCCCS(=O)(=O)c1ccc(C(=O)CCN2CCN(S(=O)(=O)CC)CC2)c(Cl)c1", "Papp": 300},
      {"smiles": "CCCCCCOc1ccc(C(=O)CCN(C)C)c2ccccc12", "Papp": 660},
      {"smiles": "CCCCCC(=O)Nc1ccc(C(=O)CCN(C)C)cc1", "Papp": 560},
      {"smiles": "CCCN1CCN(c2ccc(C(=O)CCN(C)C)cc2)CC1", "Papp": 320},
      {"smiles": "CCCCCCSc1ccc(C(=O)CCN2CCN(S(=O)(=O)CC)CC2)c(Cl)c1", "Papp": 740},
      {"smiles": "CCCCCCSc1ccc(C(=O)CCN(C)C)c(Cl)c1Cl", "Papp": 140},
      {"smiles": "CCCCCCSc1cc(Cl)c(C(=O)CCN2CC2C)cc1Cl", "note": "(configuration not stated)", "Papp": 140},
      {"smiles": "CCCCCCSc1ccc(C(=O)CCN2CCOCC2)c(Cl)c1Cl", "Papp": 170},
      {"smiles": "CCCCCCOc1c(C)cc(C(=O)CCN(C)C)cc1C", "Papp": 730},
      {"smiles": "CCCCCCOc1ccc(C(=O)CCN(C)C)cc1Br", "Papp": 460},
      {"smiles": "CCCCCCS(=O)(=O)c1ccc(C(=O)CCN2CCNC(=O)C2)c(Cl)c1", "Papp": 240},
      {"smiles": "CCCCCCOc1ccc(C(=O)CCN(C)C)c(S(C)(=O)=O)c1", "Papp": 850},
      {"smiles": "CCCCCCOc1ccc(C(=O)CCN(C)C)cc1C(F)(F)F", "Papp": 930},
      {"smiles": "CCCCCCSc1cc(Cl)c(C(=O)CCN2CCN(S(=O)(=O)CC)CC2)c(Cl)c1", "Papp": 50},
      {"smiles": "CCCCCCS(=O)(=O)c1cc(C)c(C(=O)CCN2CCNC(=O)C2)c(C)c1", "Papp": 480},
      {"smiles": "CCCCCCOc1ccc(C(=O)CCN(C)C)c(C)c1", "Papp": 750},
      {"smiles": "CCCCCCS(=O)(=O)c1cc(Cl)c(C(=O)CCN2CCNC(=O)C2)cc1Cl", "Papp": 540},
      {"smiles": "CCCCCCOc1ccc(C(=O)CCN(C)C)c(C(F)(F)F)c1", "Papp": 500},
      {"smiles": "CCCCCCOc1ccc(C(=O)CCN2CCOCC2)c(Cl)c1Cl", "Papp": 930},
      {"smiles": "CCCCCCS(=O)(=O)c1cc(Cl)c(C(=O)CCN2CCOCC2)cc1Cl", "Papp": 680},
      {"smiles": "CCCCCCOc1ccc(C(=O)CCN(C)C)cc1C(C)(C)C", "Papp": 190},
      {"smiles": "CCCCCCSc1cc(Cl)c(C(=O)CCN2CCOCC2)c(Cl)c1", "Papp": 10},
      {"smiles": "CCCCCCSc1ccc(C(=O)CCN2CC2C)c(Cl)c1Cl", "note": "(configuration not stated)", "Papp": 70},
      {"smiles": "CCCCCCS(=O)(=O)c1cc(Cl)c(C(=O)CCN2CCN(C(C)=O)CC2)c(Cl)c1", "Papp": 480},
      {"smiles": "CCCCCCS(=O)(=O)c1ccc(C(=O)CCN2CCN(S(=O)(=O)CC)CC2)c(Cl)c1Cl", "Papp": 380},
      {"smiles": "CCCCCCS(=O)(=O)c1cc(Cl)c(C(=O)CCN(C)C)c(Cl)c1", "Papp": 170},
      {"smiles": "CCCCCCOc1ccc2c(c1)OCC(CN(C)C)C2=O", "note": "(configuration not stated)", "Papp": 700},
      {"smiles": "CCCCCCOc1cc(Cl)c(C(=O)CCN(C)C)c(Cl)c1", "Papp": 700},
      {"smiles": "CCCCCCS(=O)(=O)c1cc(Cl)c(C(=O)CCN2CCNC(=O)C2)c(Cl)c1", "Papp": 430},
      {"smiles": "CCCCCCS(=O)(=O)c1ccc(C(=O)CCN2CCN(C(C)=O)CC2)c(Cl)c1Cl", "Papp": 770},
      {"smiles": "CCCCCCOc1ccc(C(=O)CCNc2cccc(Cl)c2)cc1", "Papp": 2},
      {"smiles": "CCCCCCS(=O)(=O)c1ccc(C(=O)CCN2CC2C)c(Cl)c1Cl", "note": "(configuration not stated)", "Papp": 440},
      {"smiles": "CCCCCCS(=O)(=O)c1cc(Cl)c(C(=O)CCN2CCN(C(C)=O)CC2)cc1Cl", "Papp": 670},
      {"smiles": "CCCCCCNC(=O)c1ccc(C(=O)CCN(C)C)cc1", "Papp": 770},
      {"smiles": "CCCCCCSc1cc(C)c(C(=O)CCN2CC2C)c(C)c1", "note": "(configuration not stated)", "Papp": 770},
      {"smiles": "CCCCCCS(=O)(=O)c1cc(Cl)c(C(=O)CCN2CC2C)c(Cl)c1", "note": "(configuration not stated)", "Papp": 980},
      {"smiles": "CCCCCCS(=O)(=O)c1cc(Cl)c(C(=O)CCN2CCN(S(=O)(=O)CC)CC2)cc1Cl", "Papp": 730}
    ]}
  ]
}
